Read-outs that look alike come from different tables or passages of the source.
How the values were obtained:
α-glucosidase [1] = target: α-glucosidase; set-up: method as in PMID 28554631; conditions: constituent of Yingde black tea; read-out: IC50 of α-glucosidase inhibition; cited from earlier work
α-glucosidase [2] = test system: α-glucosidase; set-up: method as in PMID 30236734; conditions: cited from earlier work
HepG2 cells = experiment: Glucose consumption assay in HepG2 cells; type: cell-based; conditions: 0.18 mg/L, 24 h, medium with 12.0 mM glucose
Procedure: Here, HepG2 cells were used to evaluate the glucose consumption of the isolated compounds according to a method described in the literature ([12]). Briefly, HepG2 cells were cultured for 24 h. Subsequently, they were transferred from DMEM medium (containing FBS, PEM and SM) to another DMEM medium (containing 12.0 mM glucose). Then, HepG2 cells and the test samples with a concentration of 0.18 mg/L were incubated together for another 24 h. The glucose consumption was obtained by measuring the glucose content of the cell culture supernatant with a glucose kit.

α-glucosidase [3] = experiment: α-glucosidase inhibition assay (p-NPG substrate); type: biochemical; conditions: pH 6.8, 37°C
Procedure: This experiment was carried out according to the literature ([11]). Briefly, the test sample was dissolved in solutions (SS) with DMSO as the solvent. p-NPG and α-glucosidase were, respectively mixed with phosphate buffer (PB, 60 mM phosphate, pH 6.8) and used as stock solutions. The concentration of α-glucosidase solution (GS) was 0.5 U/ml and that of p-NPG solution (NS) was 5 mM. In addition, four different solutions (A, B, C and D) were prepared: Solution A contained 112 μl PB, 20 μl GS, and 8 μl SS; Solution B contained 112 μl PB and 20 μl GS; Solution C contained 112 μl PB, 8 μl SS, and 20 μl GS; and Solution D contained 132 μl PB and 8 μl DMSO. After starting each reaction at 37°C, p-nitrophenol was quantified by measuring the absorbance at 405 nm with a UV–vis spectrophotometer. The inhibition rate was calculated according to equation (1):
(1) Inhibition rate (%)= [((Aas − Bas)[…]) / (Aas −Bas)][…],
where Aas, Bas, Cas and Das are the absorbances of solution A, B, C and D, respectively. The sample concentration that inhibited 50% α-glucosidase activity was defined as the IC50value.

[4] = Liposolubility (qualitative observation); type: physicochemical
α-glucosidase [5] = experiment: Enzyme kinetic experiments on α-glucosidase (reversibility, Lineweaver-Burk plots, secondary replot); type: biochemical
Text: The reversibility of enzyme inhibition can be determined according to the influence of sample concentration and enzyme concentration on enzyme activity. […] This implied that 1 was a reversible α-glucosidase inhibitor ([16]). The reversibility of the inhibition of α-glucosidase by different flavonoids has been studied extensively ([17]). However, definitive conclusions cannot been drawn about the relationship between the structure of flavonoids and the reversibility of the inhibition of α-glucosidase ([18]).
The double-reciprocal diagram, based on a Lineweaver–Burk plot, is widely used to investigate inhibitory kinetics of compounds on enzymes. […] Thus, the complex formed by the combination of compound 1 with substrate and α-glucosidase led to the inactivation of the latter. In addition, the number of binding sites between the compound and α-glucosidase can be obtained by a second linear fitting of the concentration of compound 1 and Y-intercept, which is shown in Figure 4D. […] Through further calculation, the binding constant was obtained as 4.58 × 10^4 L/mol. There were obvious differences in the inhibition mechanism of different types of flavonoids on α-glucosidase. […] The above facts indicate that the mechanisms of action of flavonoids on glucosidase are diverse and complex.

Molecule	Glucose consumption (HepG2 cells)	IC50 (α-glucosidase [3])	Liposolubility [4]	other results
amelliaone A	–	–	–	IC50 (α-glucosidase [1]): 10.2 µM
O=c1c(O)c(-c2ccccc2)oc2cc(O)cc(O)c12 [galangin]	–	–	–	Number of binding sites with α-glucosidase (α-glucosidase [2]): one; Type of α-glucosidase inhibition (α-glucosidase [2]): mixed inhibition of competitive inhibition and non-competitive inhibition
ameridone E [compound 5]	9.06 ± 0.15 mmol/L	81.7 ± 2.72 µM	–	–
ameridone D [compound 4]	8.30 ± 0.33 mmol/L	76.5 ± 3.52 µM	–	–
COc1ccc([C@H]2CC(=O)c3c(cc(O)c(/C=C(\C)CCC=C(C)C)c3O)O2)cc1O [compound 2, (R,E)-6-(2,6-dimethylhepta−1,5-dien-1-yl)-5,7-dihydroxy-2-(3-hydroxy-4-methoxyphenyl) chroman-4-one]	9.40 ± 0.12 mmol/L	33.2 ± 2.21 µM	almost the same	–
COc1ccc([C@H]2CC(=O)c3c(cc(O)c(/C=C(/C)CCC=C(C)C)c3O)O2)cc1O [compound 1, (R, z)-6-(2,6-xylheptane-1,5-dien-1-yl)-5,7-dihydroxy-2-(3-hydroxy-4-methoxyphenyl) chroman-4-one]	10.58 ± 0.18 mmol/L	7.51 µM	excellent	melting point: 165 °C; Type of α-glucosidase inhibition (α-glucosidase [5]; Lineweaver-Burk plot): non-competitive; Binding constant with α-glucosidase (α-glucosidase [5]; calculated from secondary replot): 45800 L/mol; Reversibility of the inhibition of α-glucosidase (α-glucosidase [5]; enzyme concentration vs enzyme activity at a series of sample dosages): reversible; Number of binding sites with α-glucosidase (α-glucosidase [5]; secondary replot of Y-intercept vs concentration): one
CC1=CC[C@H](C)C(c2c(O)cc3occ(-c4ccc(O)cc4)c(=O)c3c2O)=CC1 [compound 3, (S)-6-(4,7-dimethylcyclohepta-1,4-dien-1-yl)-5,7-dihydroxy-3-(4-hydroxyphenyl)−4H-chromen-4-one]	8.98 ± 0.39 mmol/L	56.4 ± 2.11 µM	slightly inferior to the others	–

Reference: article PMC9686339, “Bioassay-guided isolation of Fenghuang Dancong tea constituents with α-glucosidase inhibition activities” (Frontiers in Nutrition, 2022)
